Source: US20230024442A1, “BIFUNCTIONAL COMPOUNDS FOR GRADING BTK VIA UBIQUITIN PROTEOSOME PATHWAY” (NURIX THERAPEUTICS, INC., priority 2019, published 2023)

target: T1, BTK (Homo sapiens, UniProt Q06187); assay: Cellular BTK HTRF Assay (BTK levels in Ramos cells); assay type: cell-based; conditions: Ramos cells, 50,000 cells, incubated four hours at 37° C.; BTK levels by Cisbio Total-BTK HTRF relative to DMSO-treated cells
T1 construct: endogenous in cells; host or cells: Ramos (ATCC CRL-1596)
Protocol: Ramos (CRL-1596) cells were obtained from American Type Culture Collection and were grown in RPMI-1640 media (ATCC, 30-2001) supplemented with 10% heat-inactivated FBS (Corning Premium Fetal Bovine Serum from Fisher, MT35015CV).
Compounds of the present invention were added to 50,000 Ramos cells in round-bottom 96 well plates with a final DMSO concentration of […] and were incubated at 37° C. 5% CO2 for four hours. BTK levels were determined using Cisbio Total-BTK HTRF ([…] Time-Resolved Fluorescence) kit (63ADK064PEG) according to manufacturer's protocol. Briefly, cells were incubated in 1× supplied lysis buffer for 30 minutes. In an opaque white low volume 96 well plate (Cisbio, 66PL96005), cell lysate was combined with two different specific BTK antibodies, one conjugated with Eu^3+-Cryptate FRET donor and one conjugated with d2 FRET acceptor. Assay controls include wells containing cell lysate with only the Eu^3+-Cryptate FRET donor antibody and wells containing both HTRF antibodies and lysis buffer without cells or control lysate provided by Cisbio. HTRF ratio was calculated as (acceptor signal at 665 nm/donor signal at 620 nm)×10^4. Background HTRF levels were determined from the control well containing the donor, but no acceptor, antibody. Background HTRF levels were subtracted from all samples. Readouts were reported as HTRF levels relative to HTRF levels of DMSO-treated cells. Four-parameter non-linear regressions were performed in GraphPad Prism 7.02 to obtain DC50 values. DC50 values are provided in Table 7, wherein A<1 nM, 1 nM≤B≤10 nM, and 10 nM<C<1 μM.

T1 sequence (Q06187 whole entry): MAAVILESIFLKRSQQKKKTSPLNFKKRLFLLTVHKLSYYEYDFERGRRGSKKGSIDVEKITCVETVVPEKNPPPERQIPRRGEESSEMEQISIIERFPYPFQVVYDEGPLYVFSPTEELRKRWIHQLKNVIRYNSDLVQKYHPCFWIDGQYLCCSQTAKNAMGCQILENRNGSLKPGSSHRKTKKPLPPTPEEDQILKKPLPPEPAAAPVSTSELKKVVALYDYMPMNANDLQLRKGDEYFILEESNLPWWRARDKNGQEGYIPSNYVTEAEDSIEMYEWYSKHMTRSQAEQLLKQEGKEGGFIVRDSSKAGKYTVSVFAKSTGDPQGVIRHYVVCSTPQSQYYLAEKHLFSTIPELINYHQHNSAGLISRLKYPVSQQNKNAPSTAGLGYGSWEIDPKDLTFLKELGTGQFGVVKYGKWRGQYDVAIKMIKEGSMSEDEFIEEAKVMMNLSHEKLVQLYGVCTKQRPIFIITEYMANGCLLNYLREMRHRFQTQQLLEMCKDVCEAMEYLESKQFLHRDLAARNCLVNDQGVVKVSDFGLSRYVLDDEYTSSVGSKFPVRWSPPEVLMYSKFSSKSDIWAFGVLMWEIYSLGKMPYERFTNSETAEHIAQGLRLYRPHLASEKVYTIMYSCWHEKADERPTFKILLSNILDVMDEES

| SMILES | DC50 |
| --- | --- |
| C[C@H]1CN(C(=O)N(C)CCOCCOCCOCCOCCOCCCc2cccc3c2CN(C2CCC(=O)NC2=O)C3=O)CCN1c1ccc(Nc2cc(-c3ccnc(N4CCn5c(cc6c5CC(C)(C)C6)C4=O)c3CO)cn(C)c2=O)nc1 (some centres unmarked) [Compound 45] | 1 to 10 nM |
| C[C@H]1CN(C(=O)CCOCCOCCOCCNc2cccc3c2C(=O)N(C2CCC(=O)NC2=O)C3=O)CCN1c1ccc(Nc2cc(-c3ccnc(N4CCn5c(cc6c5CC(C)(C)C6)C4=O)c3CO)cn(C)c2=O)nc1 (some centres unmarked) [Compound 52] | 1 to 10 nM |
| C[C@H]1CN(C(=O)[C@H]2CC[C@H](Nc3cccc4c3C(=O)N(C3CCC(=O)NC3=O)C4=O)CC2)CCN1c1ccc(Nc2cc(-c3ccnc(N4CCn5c(cc6c5CC(C)(C)C6)C4=O)c3CO)cn(C)c2=O)nc1 (some centres unmarked) [Compound 31] | 1 to 10 nM |
| C[C@H]1CN(C(=O)CNc2cccc3c2C(=O)N(C2CCC(=O)NC2=O)C3=O)CCN1c1ccc(Nc2cc(-c3ccnc(N4CCn5c(cc6c5CC(C)(C)C6)C4=O)c3CO)cn(C)c2=O)nc1 (some centres unmarked) [Compound 35] | 1 to 10 nM |
| Cn1cc(-c2ccnc(-n3ncc4cc(C(C)(C)C)cc(F)c4c3=O)c2CO)cc(Nc2cc3n(n2)CCN(C(=O)CN2CCN(CCCc4cccc5c4C(=O)N(C4CCC(=O)NC4=O)C5=O)CC2)C3)c1=O (centres unmarked) [Compound 14] | 1 to 10 nM |
| C[C@@H]1CN(C(=O)NCCCCCc2cccc3c2CN(C2CCC(=O)NC2=O)C3=O)CCN1c1ccc(Nc2cc(-c3ccnc(N4CCn5c(cc6c5CC(C)(C)C6)C4=O)c3CO)cn(C)c2=O)nc1 (some centres unmarked) [Compound 46] | 1 to 10 nM |
| C[C@H]1CN(C(=O)CCCN2CCN(c3cc4c(cc3F)C(=O)N(C3CCC(=O)NC3=O)C4=O)CC2)CCN1c1ccc(Nc2cc(-c3ccnc(N4CCn5c(cc6c5CC(C)(C)C6)C4=O)c3CO)cn(C)c2=O)nc1 (some centres unmarked) [Compound 58] | 1 to 10 nM |
| Cn1cc(-c2ccnc(-n3ncc4cc(C(C)(C)C)cc(F)c4c3=O)c2CO)cc(Nc2cc3n(n2)CCN(CCCCc2cccc4c2CN(C2CCC(=O)NC2=O)C4=O)C3)c1=O (centres unmarked) [Compound 18] | 1 to 10 nM |
| C[C@H]1CN(C(=O)CCOCCCc2cccc3c2C(=O)N(C2CCC(=O)NC2=O)C3=O)CCN1c1ccc(Nc2cc(-c3ccnc(N4CCn5c(cc6c5CC(C)(C)C6)C4=O)c3CO)cn(C)c2=O)nc1 (some centres unmarked) [Compound 28] | 1 to 10 nM |
| C[C@H]1CN(C(=O)CCOCCOCCOCCCc2cccc3c2CN(C2CCC(=O)NC2=O)C3=O)CCN1c1ccc(Nc2cc(-c3ccnc(N4CCn5c(cc6c5CC(C)(C)C6)C4=O)c3CO)cn(C)c2=O)nc1 (some centres unmarked) [Compound 49] | 1 to 10 nM |
| Cn1cc(-c2ccnc(-n3ncc4cc(C(C)(C)C)cc(F)c4c3=O)c2CO)cc(Nc2cc3n(n2)CCN(CCCc2cccc4c2CN(C2CCC(=O)NC2=O)C4=O)C3)c1=O (centres unmarked) [Compound 20] | 1 to 10 nM |
| C[C@@H]1CN(C(=O)N(C)CCOCCOCCOCCOCCCc2cccc3c2CN(C2CCC(=O)NC2=O)C3=O)CCN1c1ccc(Nc2cc(-c3ccnc(N4CCn5c(cc6c5CC(C)(C)C6)C4=O)c3CO)cn(C)c2=O)nc1 (some centres unmarked) [Compound 44] | 1 to 10 nM |
| Cn1cc(-c2ccnc(-n3ncc4cc(C(C)(C)C)cc(F)c4c3=O)c2CO)cc(Nc2cc3n(n2)CCN(C(=O)CCCNc2cccc4c2C(=O)N(C2CCC(=O)NC2=O)C4=O)C3)c1=O (centres unmarked) [Compound 9] | 1 to 10 nM |
| C[C@@H]1CN(CCOCCOCCOCCNc2cccc3c2C(=O)N(C2CCC(=O)NC2=O)C3=O)CCN1c1ccc(Nc2cc(-c3ccnc(N4CCn5c(cc6c5CC(C)(C)C6)C4=O)c3CO)cn(C)c2=O)nc1 (some centres unmarked) [Compound 41] | 1 to 10 nM |
| C[C@H]1CN(C(=O)CCCNc2cccc3c2C(=O)N(C2CCC(=O)NC2=O)C3=O)CCN1c1ccc(Nc2cc(-c3ccnc(N4CCn5c(cc6c5CC(C)(C)C6)C4=O)c3CO)cn(C)c2=O)nc1 (some centres unmarked) [Compound 37] | 1 to 10 nM |
| C[C@H]1CN(C(=O)CCCCc2cccc3c2CN(C2CCC(=O)NC2=O)C3=O)CCN1c1ccc(Nc2cc(-c3ccnc(N4CCn5c(cc6c5CC(C)(C)C6)C4=O)c3CO)cn(C)c2=O)nc1 (some centres unmarked) [Compound 38] | 1 to 10 nM |
| Cn1cc(-c2ccnc(-n3ncc4cc(C(C)(C)C)cc(F)c4c3=O)c2CO)cc(Nc2cc3n(n2)CCN(C(=O)CN2CCN(CCc4cccc5c4CN(C4CCC(=O)NC4=O)C5=O)CC2)C3)c1=O (centres unmarked) [Compound 22] | 10 to 1000 nM |
